According to ChEMBL document CHEMBL1128953, “Solid-phase synthesis of peptidosulfonamide containing peptides derived from Leu-enkephalin” (Bioorg Med Chem Lett, 1996):
Peptide text beside a SMILES is read from it. * marks the point of attachment. X1 = CC(C)C[C@@H](CS(N)(=O)=O)N*

Assay: Compound was tested for inhibition of anti-beta-endorphin monoclonal antibody by using ELISA assay.
Format: functional

**Q.** Which IC50 does the source give for `CC(C)C[C@H](NS(=O)(=O)C[C@H](Cc1ccccc1)NC(=O)CNC(=O)CNC(=O)[C@@H](N)Cc1ccc(O)cc1)C(N)=O` here?
**A.** 0.9 µM

**Q.** Which IC50 does the source give for `CC(C)C[C@H](NC(=O)[C@H](Cc1ccccc1)NC(=O)CNS(=O)(=O)CCNC(=O)[C@@H](N)Cc1ccc(O)cc1)C(=O)O` here?
**A.** > 200 µM

**Q.** Which IC50 does the source give for `CC(C)C[C@H](NC(=O)[C@H](Cc1ccccc1)NS(=O)(=O)CCNC(=O)CNC(=O)[C@@H](N)Cc1ccc(O)cc1)C(N)=O` here?
**A.** 85 µM

**Q.** Which IC50 does the source give for `CC(C)C[C@H](NC(=O)[C@H](Cc1ccccc1)NC(=O)CNS(=O)(=O)CCNC(=O)[C@@H](N)Cc1ccc(O)cc1)C(N)=O` here?
**A.** 75 µM

**Q.** With `CC(C)C[C@H](NS(=O)(=O)C[C@H](Cc1ccccc1)NC(=O)CNC(=O)CNC(=O)[C@@H](N)Cc1ccc(O)cc1)C(=O)O` as the compound, how does the IC50 read?
**A.** 5 µM

**Q.** For `CC(C)C[C@H](NC(=O)[C@H](Cc1ccccc1)NS(=O)(=O)CCNC(=O)CNC(=O)[C@@H](N)Cc1ccc(O)cc1)C(=O)O`, which IC50 is on record?
**A.** > 200 µM

**Q.** With `CC(C)C[C@@H](CS(N)(=O)=O)NC(=O)[C@H](Cc1ccccc1)NC(=O)CNC(=O)CNC(=O)[C@@H](N)Cc1ccc(O)cc1` (H-YGGF-X1) as the compound, how does the IC50 read?
**A.** 0.1 µM

**Q.** With `CC(C)C[C@H](NC(=O)[C@H](Cc1ccccc1)NC(=O)CNC(=O)CNC(=O)[C@@H](N)Cc1ccc(O)cc1)C(N)=O` [[LEU5]ENKEPHALIN] as the compound, how does the IC50 read?
**A.** 0.07 µM
